Measurements published in US20140186329A1, “POLYPHENOL ANALOGS TO TREAT ISCHEMIA” (priority 2011, published 2014).

What was measured:
[1] = tested on: embolic strokes in rabbits; assay: Rabbit small clot embolic stroke model (RSCEM); type: in vivo; conditions: for therapeutic window in the RSCEM: time post-embolization
Source text: The ability of polyphenol analogs to treat, prevent and/or mitigate one or more symptoms of stroke can also be evaluated in in vivo assays. Such assays are known in the art and find use. One applicable in vivo screening assay is the rabbit clot embolic stroke model, discussed, e.g., in Lapchak, et al., Stroke (2002) 33(9):2279-84 and Lapchak, Exp Neurol. (2007) 205(2):407-13. The rabbit small clot embolic stroke model (RSCEM) and rabbit large clot embolic stroke model (RLCEM) can be used to determine the potential neuroprotective properties and safety profile of test polyphenol analogs after an embolic stroke. Rabbits are embolized by injecting small blood clots (RSCEM) or large blood clots (RLCEM) into the cerebral circulation. Behavioral analysis is conducted 24 hours later, allowing for determination of the effective stroke dose (ES50) or clot amount (milligrams) that produces severe neurological deficits in 50% of rabbits. A drug is considered neuroprotective if it increases the ES50 compared with the vehicle-treated control group.
Behavioral analysis was conducted at 24 hours following treatment, which allowed for the construction of quantal dose-response analysis curves. […] For the superimposed graphs, normal animals are plotted on the y-axis at 0% and abnormal animals are plotted at 100%. […] Moreover, CGA increased the P50 value (the clot dose that produces abnormality in 50% of a treatment group) compared to vehicle control. For a detailed discussion of the methods used to fit the quantal data to a sigmoidal curve, see Zivin and Waud. The pharmacology of chlorogenic acid in the rabbit small clot embolic stroke model (RSCEM) has been published (Lapchak, Exp Neurol. 2007 205(2):407-13). In the manuscript, it is shown that CGA has a therapeutic window of 60 minutes in the RSCEM. FIG. 2 presents the therapeutic window data.

[2] = tested on: PC12 cells; assay: Glucose starvation; type: cell-based; conditions: MTT 24 hr
Procedure: (§1) FIG. 5 illustrates pharmacological effects of Baicalein on cultured cells. (A) Trophic factor withdrawal. Primary cortical neurons are prepared from 18-day-old rat embryos, and cultured at low cell density 1×10^6/35 mm dish, in serum containing medium with Baicalein (10-10,000 nM), and viability assayed 2 days later using a live-dead assay. (B) Excitotoxicity assay was done with E14 mouse primary cortical neuron cultures. After 11 days of culture, cells were exposed to 10 μM glutamate for 10 min, followed by the addition of varying concentrations of Baicalein (0.2-5 μM). Cell viability was determined 24 hr later with a standard MTT assay. (C) PC12 cells were glucose-deprived then were incubates in the absence or presence of Baicalein. Cell viability was determined 24 hr later using the MTT assay. (D) RCG-5 nerve cells were treated with 30 μM iodoacetic acid for 2 hr in the presence or absence of 5-25 μM Baicalein. In some experiments, Baicalein was added 2 hr after the ischemic event. Cell survival (%) was measured after 24 hr by the MTT assay. Baicalein added before (□) or 2 hr after ([…]) ischemia. […] When these cells are starved for glucose, there is approximately 70% maximal survival in the presence of NGF. Baicalein promotes over 80% survival (FIG. 5C).

[3] = tested on: primary cortical neurons; assay: Trophic factor withdrawal; type: cell-based, rat; conditions: serum-containing medium, 10-10,000 nM, 2 days
Procedure: as §1, with “These include trophic factor withdrawal (TFW), excitotoxicity, glucose starvation, and most importantly, in a chemical ischemia model. […] (FIG. 5A). Using a published excitotoxicity assay, Baicalein rescues about 35% of the” for “When these”, “cells” for “cells are starved for glucose, there is approximately 70% maximal survival in the presence of NGF. Baicalein promotes over 80% survival”, “5B).” for “5C).”

[4] = tested on: RCG-5 nerve cells; assay: Chemical ischemia model (IAA) in RCG-5 nerve cells; type: cell-based; conditions: 30 μM IAA 2 hr, 5-25 μM, also added 2 hrs after insult
Procedure: as §1

[5] = cell based assays (not specified)
[6] = administered 1 hour following embolization
[7] = administered 3 hours following embolization
[8] = 50 mg/kg intravenously, 5 minutes following embolization, behavior at 24 hours

EC50 [5] [µM]	SMILES	P50 value (clot dose that produces abnormality in 50% of a group) ([1]; 100 mg/kg subcutaneously, 60 minutes following embolization) [mg]	improvement of behavior [1, 6]	improvement of behavior [1, 7]	therapeutic window in the RSCEM [1] [min]	survival of glucose-starved cells [2]	survival of low-density cultured cortical neurons [3]	prevention of cell death in chemical ischemia model [4]	P50 value (clot dose that produces abnormality in 50% of a group) [1, 8] [mg]
	O=c1cc(-c2ccccc2)oc2cc(O)c(O)c(O)c12 [Baicalein, 5,6,7-trihydroxyflavone, reference compound]	2.15 ± 0.12	effective at improving behavior	neither improve behavior	≥ 60	over 80%	dramatically promotes the survival	prevents cell death	
	O=C(/C=C/c1ccc(O)c(O)c1)O[C@@H]1C[C@](O)(C(=O)O)C[C@@H](O)[C@H]1O [Chlorogenic Acid, 1,3,4,5-tetrahydroxy-cyclohexanecarboxylic acid 3-(3,4-dihydroxycinnamate)]		effective at improving behavior	neither improve behavior	60				3.61 ± 0.52
2 to 5	O=c1c(O)c(-c2ccc(O)c(O)c2)oc2cc(O)ccc12 [Fisetin, 3,7,3′,4′-Tetrahydroxyflavone, reference compound]								2.53 ± 0.55
